Several values for one entry are separate records, joined by “and”; a condition that tells them apart may be missing. Identical values can stand only once. Toxic doses and inconclusive results are not listed. Cut-off read from the data, not from the text of the source: active = T/C of 150% or more; inactive = T/C below 125%.
Tested on: L1210 leukemia ip in BDF1 mice, survival T/C
Assay: NCI In Vivo Anticancer Drug Screen. Data for tumor model L1210 Leukemia (intraperitoneal) in B6D2F1 (BDF1) mice
Settings: endpoint: mean survival time, higher = longer survival
Method in brief: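 Antitumor effect is assessed in tumor-bearing animals. Survival in the compound arm is compared with a vehicle-dosed control arm and expressed as their quotient.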

[1] = dose: 100.0 mg/kg/injection, schedule: Q01DX001 (ip), vehicle: saline
[2] = dose: 100.0 mg/kg/injection, schedule: Q04DX003 (ip), vehicle: saline
[3] = dose: 200.0 mg/kg/injection, schedule: Q01DX001 (ip), vehicle: saline
[4] = dose: 200.0 mg/kg/injection, schedule: Q04DX003 (ip), vehicle: saline
[5] = dose: 400.0 mg/kg/injection, schedule: Q01DX001 (ip), vehicle: saline
[6] = dose: 400.0 mg/kg/injection, schedule: Q04DX003 (ip), vehicle: saline
[7] = dose: 100.0 mg/kg/injection, schedule: Q01DX009 (ip), vehicle: Klucel (hydroxypropylcellulose) (HPC)
[8] = dose: 100.0 mg/kg/injection, schedule: Q04DX003 (ip), vehicle: Klucel (hydroxypropylcellulose) (HPC)
[9] = dose: 200.0 mg/kg/injection, schedule: Q01DX009 (ip), vehicle: Klucel (hydroxypropylcellulose) (HPC)
[10] = dose: 200.0 mg/kg/injection, schedule: Q04DX003 (ip), vehicle: Klucel (hydroxypropylcellulose) (HPC)
[11] = dose: 400.0 mg/kg/injection, schedule: Q01DX009 (ip), vehicle: Klucel (hydroxypropylcellulose) (HPC)
[12] = dose: 400.0 mg/kg/injection, schedule: Q04DX003 (ip), vehicle: Klucel (hydroxypropylcellulose) (HPC)
[13] = dose: 100.0 mg/kg/injection, schedule: Q01DX009 (ip), vehicle: saline with Tween-80
[14] = dose: 200.0 mg/kg/injection, schedule: Q01DX009 (ip), vehicle: saline with Tween-80
[15] = dose: 400.0 mg/kg/injection, schedule: Q01DX009 (ip), vehicle: saline with Tween-80
[16] = dose: 50.0 mg/kg/injection, schedule: Q01DX009 (ip), vehicle: saline with Tween-80
[17] = dose: 100.0 mg/kg/injection, schedule: Q04DX003 (ip), vehicle: saline with Tween-80
[18] = dose: 200.0 mg/kg/injection, schedule: Q04DX003 (ip), vehicle: saline with Tween-80
[19] = dose: 400.0 mg/kg/injection, schedule: Q04DX003 (ip), vehicle: saline with Tween-80
[20] = dose: 50.0 mg/kg/injection, schedule: Q01DX009 (ip), vehicle: Klucel (hydroxypropylcellulose) (HPC)
[21] = dose: 25.0 mg/kg/injection, schedule: Q04DX003 (ip), vehicle: saline
[22] = dose: 100.0 mg/kg/injection, schedule: Q01DX001 (ip), vehicle: saline with Tween-80
[23] = dose: 100.0 mg/kg/injection, schedule: Q04DX002 (ip), vehicle: saline with Tween-80
[24] = dose: 200.0 mg/kg/injection, schedule: Q01DX001 (ip), vehicle: saline with Tween-80
[25] = dose: 200.0 mg/kg/injection, schedule: Q04DX002 (ip), vehicle: saline with Tween-80
[26] = dose: 400.0 mg/kg/injection, schedule: Q01DX001 (ip), vehicle: saline with Tween-80
[27] = dose: 400.0 mg/kg/injection, schedule: Q04DX002 (ip), vehicle: saline with Tween-80

Measured: T/C

O=S(=O)(c1ccccc1)C1CC1c1ccc(Cl)cc1 (stereo not given)
inactive: [1] 97 % of control | [2] 104 % of control | [3] 92 % of control | [4] 96 % of control | [5] 98 % of control | [6] 96 % of control

CCOC(=O)NC(CC)CO (stereo not given)
inactive: [7] 96 % of control | [8] 96 % of control | [9] 92 % of control | [10] 104 % of control | [11] 108 % of control | [12] 96 % of control

NCCOS(=O)(=O)O
inactive: [7] 105 % of control | [13] 92 % of control | [9] 101 % of control | [14] 108 % of control | [11] 100 % of control | [15] 99 % of control

CN(C)c1ccc(Cc2ccc(N(C)C)cc2[N+](=O)[O-])cc1
inactive: [7] 102 % of control | [8] 96 % of control | [9] 93 % of control | [10] 96 % of control | [11] 95 % of control | [12] 101 % of control

CN(C)c1ccc(/C=C2\SC(=S)N(c3ccccc3)C2=O)cc1
inactive: [16] 96 % of control | [13] 103 % of control | [14] 100 % of control

O=C(Nc1cccc2ccccc12)c1ccc(Cl)c(Cl)c1
inactive: [7] 104 % of control | [9] 100 % of control | [11] 98 % of control

Clc1ccccc1-c1nc2ccccc2cc1Cl
inactive: [1] 92 % of control | [3] 88 % of control | [5] 94 % of control

SCc1c(Cl)c(Cl)c(Cl)c(Cl)c1Cl.[Hg]
inactive: [8] 93 % of control | [10] 91 % of control | [12] 93 % of control

Cc1ccc(S(=O)(=O)OCC2C3CCC(C3=O)C2COS(=O)(=O)c2ccc(C)cc2)cc1 (stereo not given)
inactive: dose: 50.0 mg/kg/injection, schedule: Q04DX003 (ip), vehicle: saline with Tween-80 98 % of control | [17] 96 % of control and 106 % of control | [18] 98 % of control | [19] 86 % of control

COc1cc(C(=O)COC(C)=O)cc2c1OC(c1ccccc1)(c1ccccc1)O2
inactive: [3] 86 % of control

O=C(NNc1ccccc1)OCCCl
inactive: dose: 12.5 mg/kg/injection, schedule: Q01DX009 (ip), vehicle: Klucel (hydroxypropylcellulose) (HPC) 95 % of control | dose: 25.0 mg/kg/injection, schedule: Q01DX009 (ip), vehicle: Klucel (hydroxypropylcellulose) (HPC) 101 % of control | [20] 107 % of control

[O]=[Cr](=[O])([OH])[O][Cr](=[O])(=[O])[OH]
inactive: dose: 6.25 mg/kg/injection, schedule: Q01DX009 (ip), vehicle: saline 104 % of control | dose: 12.5 mg/kg/injection, schedule: Q01DX009 (ip), vehicle: saline 97 % of control | [21] 108 % of control

Cc1cccc(C)c1NC(=O)OCCOc1ccc(Br)cc1
inactive: [13] 95 % of control | [14] 92 % of control | [15] 92 % of control

Cc1cc(C)c(NC(=O)c2cc(C(=O)O)c(C(=O)Nc3c(C)cc(C)cc3C)cc2C(=O)O)c(C)c1
inactive: [16] 119 % of control and 91 % of control | [22] 104 % of control | [23] 104 % of control and 110 % of control | [17] 107 % of control | [24] 98 % of control | [25] 94 % of control and 113 % of control | [18] 100 % of control | [26] 102 % of control | [15] 87 % of control and 89 % of control | [27] 100 % of control | [19] 96 % of control

CN(C)C(=O)C(OCc1ccccc1)C(OCc1ccccc1)C(OCc1ccccc1)C(O)COCc1ccccc1 (stereo not given)
inactive: [20] 88 % of control | [7] 96 % of control | [9] 100 % of control

O=P(Cc1ccccc1)(OCCCl)Oc1ccccc1 (stereo not given)
inactive: [7] 102 % of control | [8] 91 % of control | [9] 98 % of control | [10] 96 % of control | [11] 96 % of control | [12] 96 % of control

O=C(O)/C(=C\CCCCCC/C=C(\CCO)C(=O)O)CCO
inactive: [7] 98 % of control | [8] 96 % of control | [9] 91 % of control | [10] 93 % of control | [11] 89 % of control | [12] 93 % of control

COc1cc(NCCS(C)(=O)=O)ccc1C(=O)Nc1ccccc1
inactive: [7] 105 % of control | [8] 97 % of control | [9] 97 % of control | [10] 94 % of control | [11] 101 % of control | [12] 94 % of control

COc1ccc(OC(=O)Nc2ccc(Cl)cc2[N+](=O)[O-])cc1
inactive: [13] 95 % of control and 96 % of control | [23] 95 % of control and 98 % of control | [17] 97 % of control | [14] 99 % of control and 106 % of control | [25] 95 % of control and 101 % of control | [18] 110 % of control | [15] 99 % of control and 103 % of control | [27] 95 % of control and 98 % of control | [19] 100 % of control

O=C(c1ccccc1)C1C2C=CC(C2)C1C(=O)c1ccccc1 (stereo not given)
inactive: [7] 94 % of control | [8] 108 % of control | [9] 107 % of control | [10] 97 % of control | [11] 93 % of control | [12] 100 % of control

CNC(=S)N/N=C/c1ccccn1
inactive: dose: 25.0 mg/kg/injection, schedule: Q04DX003 (ip), vehicle: Klucel (hydroxypropylcellulose) (HPC) 112 % of control | dose: 50.0 mg/kg/injection, schedule: Q04DX003 (ip), vehicle: Klucel (hydroxypropylcellulose) (HPC) 97 % of control | [8] 93 % of control | [10] 101 % of control

CC1CCCC2C(=O)CCC(C(C)(C)O)C12C (stereo not given)
inactive: [13] 91 % of control | [17] 92 % of control | [14] 95 % of control | [18] 92 % of control | [15] 93 % of control | [19] 92 % of control

OCCc1c[nH]c2ccccc12
inactive: [8] 97 % of control | [10] 94 % of control | [12] 97 % of control

O=C1CC2CCCC(CCO)(C2)N1 (stereo not given)
inactive: dose: 100.0 mg/kg/injection, schedule: Q01DX001 (ip), vehicle: carboxymethylcellulose (CMC) 91 % of control | dose: 200.0 mg/kg/injection, schedule: Q01DX001 (ip), vehicle: carboxymethylcellulose (CMC) 94 % of control | dose: 400.0 mg/kg/injection, schedule: Q01DX001 (ip), vehicle: carboxymethylcellulose (CMC) 103 % of control

Cc1cs[n+](C)c1
inactive: [1] 94 % of control | [3] 97 % of control

CCOC(=O)C(O)(CC)c1ccncc1C (stereo not given)
inactive: [2] 96 % of control | [4] 98 % of control | [6] 100 % of control

Nc1nc(-c2ccc([N+](=O)[O-])cc2)cc(=O)[nH]1
inactive: [22] 98 % of control | [24] 93 % of control | [26] 92 % of control

c1ccc2c(c1)ccc1c3c(oc12)CCCC3
inactive: [1] 116 % of control | [3] 103 % of control | [5] 105 % of control

O=C(NCCCCCCCNC(=O)Nc1ccc(C2=NCCCN2)cc1)Nc1ccc(C2=NCCCN2)cc1
inactive: dose: 3.75 mg/kg/injection, schedule: Q01DX Z (ip), vehicle: carboxymethylcellulose (CMC) 98 % of control | dose: 7.5 mg/kg/injection, schedule: Q01DX Z (ip), vehicle: carboxymethylcellulose (CMC) 102 % of control | dose: 15.0 mg/kg/injection, schedule: Q01DX Z (ip), vehicle: carboxymethylcellulose (CMC) 120 % of control | dose: 30.0 mg/kg/injection, schedule: Q01DX Z (ip), vehicle: carboxymethylcellulose (CMC) 89 % of control

CCOC(=O)C1=C(O)C(=O)C(C(=O)OCC)C1 (stereo not given)
inactive: dose: 75.0 mg/kg/injection, schedule: Q01DX001 (ip), vehicle: saline 86 % of control | dose: 150.0 mg/kg/injection, schedule: Q01DX001 (ip), vehicle: saline 106 % of control | dose: 300.0 mg/kg/injection, schedule: Q01DX001 (ip), vehicle: saline 90 % of control

CCOC(=O)CCN(CCC(=O)OCC)C1CC1c1ccccc1 (stereo not given)
inactive: [8] 100 % of control | [10] 95 % of control | [12] 100 % of control

COc1ccc(NC(=O)NCc2ccc(C)cc2)cc1
inactive: dose: 100.0 mg/kg/injection, schedule: Q04DX002 (ip), vehicle: Klucel (hydroxypropylcellulose) (HPC) 104 % of control | dose: 200.0 mg/kg/injection, schedule: Q04DX002 (ip), vehicle: Klucel (hydroxypropylcellulose) (HPC) 104 % of control | dose: 400.0 mg/kg/injection, schedule: Q04DX002 (ip), vehicle: Klucel (hydroxypropylcellulose) (HPC) 96 % of control

CNCC/C=C1\c2ccccc2CCSc2ccccc21
inactive: [21] 98 % of control | dose: 50.0 mg/kg/injection, schedule: Q04DX003 (ip), vehicle: saline 101 % of control | [2] 95 % of control and 101 % of control

Reference: PubChem BioAssay AID248 (DTP/NCI, 2004)
